Structures are written as SMILES.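 1) Cells in 96-well plates. 2) Compound, 48 h, 5 concentrations. 3) Linear interpolation between surrounding doses. 4) Unreached endpoint = highest concentration. TGI marks complete inhibition of growth.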

Among the test systems are SK-MEL-5 melanoma; NCI-H226 lung; MDA-MB-231 breast; UACC-257 melanoma; SW-620 colon; HOP-18 NSCLC; SF-295 CNS; RPMI-8226 leukemia; M19-MEL melanoma; T-47D breast; SN12C renal; U251 CNS; SNB-78 CNS.
Holding throughout (assay): growth of human tumour cells (NCI), 48 h

On to `COC1/C=C\C=C(/C)C(=O)NC2=CC(=O)C(NCCCl)=C(CC(C)CC(OC)C(O)C(C)/C=C(/C)C1OC(N)=O)C2=O` (centres undefined), for which the TGI was 3.11 µM in the test on SK-MEL-5 melanoma; 8.62 µM in the test with NCI-H226 lung; 20.4 µM in the test with MDA-MB-231 breast; 911 nM in the test with UACC-257 melanoma; 2550 nM in the test with SW-620 colon; 1720 nM with HOP-18 NSCLC. Also, the TGI with SF-295 CNS was 8.39 µM; in the test with RPMI-8226 leukemia, 31.4 µM; in the test with M19-MEL melanoma, 1570 nM; in the test on T-47D breast it was 20.4 µM; in the test on SN12C renal it was 2800 nM; with U251 CNS, 4.14 µM. The TGI in the test with SNB-78 CNS came out at 19.2 µM.
With `Oc1c(Cl)c2nccnc2c2ccccc12`, the TGI in the test on SK-MEL-5 melanoma is above 100 µM; in the test on NCI-H226 lung, above 100 µM; with UACC-257 melanoma it was above 100000 nM; in the test with SW-620 colon, above 100000 nM; in the test with HOP-18 NSCLC, above 100000 nM; in the test with SF-295 CNS, above 100 µM. In addition, the TGI with RPMI-8226 leukemia is above 100 µM; in the test with M19-MEL melanoma, above 100000 nM; with SN12C renal it was above 100000 nM; with U251 CNS it was above 100 µM; with SNB-78 CNS, above 100 µM.

The record behind these values is PubChem BioAssay (NCI).
